Test results as given in patent US7700272B2, “Polynucleotides encoding acetylcholine-gated chloride channel subunits of Caenorhabditis elegans” (priority 2004, dated 2010).
“And” between values parts separate entries of the source, which are not always exact repeats. Equal values may be shown once. “Also recorded” adds a separate entry of the source. Read-outs that look alike come from different tables or passages of the source.

Experiments:
ACC-2D6.3+ACC-4E9.9 = type: cell-based, C. elegans; details: 1 mM
Experimental: (§8) Oocytes were harvested from mature female Xenopus leavis according to standard procedures (Goldin, A. L. (1992) Maintenance of Xenopus laevis and oocyte injection. Methods Enzymol. 207: 266-79.). To remove inner ovarian epithelium, thecal cell layer, and follicular cells, the ovarian pieces were placed in OR-2 solution: 82.5 mM NaCl, 2 mM KCl, 1 mM MgCl2, and 5 mM Hepes (pH 7.5) containing 1 mg/ml type I collagenase (Sigma, St Louis Mo., USA) either for 3 hours at 20° C. with gentle agitation or for 1 hour followed by manual defolliculization. The stage VI defolliculated oocytes were placed in ND96 solution (96 mM NaCl, 2 mM KCl, 1.8 mM CaCl2, 1 mM MgCl2, and 5 mM Hepes, pH7.5). Oocytes were injected with 40 nl of cRNA using the Nanoject system (Drummond Scientific, Broomall, Pa., USA). Injected oocytes were incubated at 20° C. in ND96 supplemented with 100 mg/ml gentamycin and 550 mg/ml pyruvate. Oocytes were allowed to express cRNA for two days before measurements were taken.

ACC-2D6.3+ACC-3D10.5 = type: cell-based, C. elegans; details: 1 mM
Experimental: as §8

ACC-4E9.9 = assay: Two-electrode voltage-clamp of Xenopus oocytes injected with ACC-4E9.9 cRNA; type: cell-based, C. elegans; details: 1 mM
Experimental: as §8

ACC-3D10.5 = assay: Two-electrode voltage-clamp of Xenopus oocytes injected with ACC-3D10.5 cRNA; type: cell-based, C. elegans; details: 1 mM
Experimental: as §8

ACC-2D6.3 channel [1] = biological target: ACC-2D6.3 channel (Caenorhabditis elegans, UniProt Q18812); assay: cell-based
Sequence of ACC-2D6.3 channel (Caenorhabditis elegans, UniProt Q18812) (Q18812 whole entry, looked up): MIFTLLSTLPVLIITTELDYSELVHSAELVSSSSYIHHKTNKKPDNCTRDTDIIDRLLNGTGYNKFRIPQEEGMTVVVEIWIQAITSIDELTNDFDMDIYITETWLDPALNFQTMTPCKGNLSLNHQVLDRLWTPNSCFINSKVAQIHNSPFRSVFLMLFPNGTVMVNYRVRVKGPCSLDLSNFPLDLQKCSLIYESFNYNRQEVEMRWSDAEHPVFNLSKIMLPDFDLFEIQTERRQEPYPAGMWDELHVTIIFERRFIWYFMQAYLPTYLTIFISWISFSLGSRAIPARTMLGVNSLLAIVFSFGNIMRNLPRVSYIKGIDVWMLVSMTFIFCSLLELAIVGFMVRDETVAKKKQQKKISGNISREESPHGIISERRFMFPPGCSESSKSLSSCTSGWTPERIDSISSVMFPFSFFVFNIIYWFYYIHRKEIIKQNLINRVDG
Text: (§1) For capped cRNA synthesis, cDNAs were subcloned into the pT7N vector, which contains a T7 RNA polymerase promoter, the 5′- and 3′-UTR of Xenopus laevis beta-globin, and an encoded poly(A+) tail (Cary R B, Klymkowsky M W, Evans R M, Domingo A, Dent J A, Backhus L E (1994) Vimentin's tail interacts with actin-containing structures in vivo. J Cell Sci 107:1609-1622.). The pT7NcDNA constructs were linearized with Sal I (ACC-2D6.3) or BamHI (ACC-1G6.4) and transcribed using the MEGAscript Kit (Ambion, Austin, Tex., USA). Synthesized cRNAs were recovered by LiCl precipitation and resuspended in nuclease-free H2O at final concentration of 1 microgram/ml.
(§2) Oocytes were harvested from mature female Xenopus leavis according to standard procedures (Goldin, A. L. (1992) Maintenance of Xenopus laevis and oocyte injection. Methods Enzymol. 207: 266-79.). To remove inner ovarian epithelium, thecal cell layer, and follicular cells, the ovarian pieces were placed in OR-2 solution: 82.5 mM NaCl, 2 mM KCl, 1 mM MgCl2, and 5 mM Hepes (pH 7.5) containing 1 mg/ml type I collagenase (Sigma, St Louis Mo., USA) either for 3 hours at 20° C. with gentle agitation or for 1 hour followed by manual defolliculization. The stage VI defolliculated oocytes were placed in ND96 solution (96 mM NaCl, 2 mM KCl, 1.8 mM CaCl2, 1 mM MgCl2, and 5 mM Hepes, pH7.5). Oocytes were injected with 40 nl of cRNA using the Nanoject system (Drummond Scientific, Broomall, Pa., USA). Injected oocytes were incubated at 20° C. in ND96 supplemented with […] gentamycin and […] pyruvate. Oocytes were allowed to express cRNA for two days before measurements were taken.
(§3) Two-electrode voltage-clamp recordings were performed using the AxoClamp 2B amplifier (Axon Instruments, Foster City, Calif., USA). Microelectrodes were pulled from borosilicate glass capillaries (Word Precision Instruments, Inc., Sarasota, Fla., USA) on the P-97 micropipette puller Sutter Instruments, Novato, Calif., USA). […] Each oocyte was placed in RC-12 recording chamber (Warner Instrument Inc., Hamden, Conn., USA) or a Maltese cross chamber (ALA Scientific Instruments, Westbury, N.Y., USA) and clamped at −80 mV. Data were acquired at 1 kHz using Clampex software (Axon Instruments, Foster City, Calif., USA).
(§4) Dose-response curves for agonists were generated by their applying the agonist in increasing concentrations followed by 3-9 min washes at each concentration. To determine EC50 and Hill coefficient agonist dose response curves were fit using the following equation: f(I)=(Imax[I]^n/(EC50^n+[I]^n))+Imin, where I is the normalized response to agonist at certain concentration, Imax is the maximal response elicited by a saturating concentration of agonist, EC50 is the concentration of agonist inducing half-maximal response, n is the Hill coefficient, and Imin is the normalized response at lowest agonist concentration.
(§5) The mean and standard error of the mean of peak current responses of at least three oocytes per experiment are represented.
(§6) All drugs were obtained from Sigma-Aldrich (St. Louis, Mo. USA) except imidicloprid (IMI) which was provided by Crompton Co. (Guelph, ON, Canada). Drugs were dissolved in ND96 except IMI, which was made as a stock solution in DMSO and diluted to working concentrations in ND96. If required, drug solutions were adjusted to pH 7.5 with either NaOH or HCl. Fresh solutions were prepared before measurements and stored at 4° C. for 1-5 days.

ACC-2 F160Y = ACC-2 F160Y (Caenorhabditis elegans, UniProt Q18812, F160Y); assay: Voltage-clamp of Xenopus oocytes expressing ACC-2 mutant F160Y; type: cell-based, C. elegans
Sequence of ACC-2 F160Y (Q18812 whole entry F160Y, looked up): as the sequence (Q18812 whole entry, looked up) above, with F160Y counted along it
Experimental: as §3, §4
(§7) These mutations are substitutions of Leu for Tyr at amino acid 100 (Y100L) and Tyr for Phe at amino acid 160 (F160Y).

ACC-2 Y100L = ACC-2 Y100L (Caenorhabditis elegans, UniProt Q18812, Y100L); assay: Voltage-clamp of Xenopus oocytes expressing ACC-2 mutant Y100L; type: cell-based, C. elegans
Sequence of ACC-2 Y100L (Q18812 whole entry Y100L, looked up): as the sequence (Q18812 whole entry, looked up) above, with Y100L counted along it
Experimental: as §3, §4, §7

ACC-1G6.4 channel [2] = biological target: T1, ACC-1G6.4 channel (Caenorhabditis elegans, UniProt Q21005); assay: Two-electrode voltage-clamp of Xenopus oocytes expressing ACC-1G6.4 homomeric channel; type: cell-based, C. elegans; details: for response (in words): 1 mM
T1 construct: Agonist: percentage of maximal acetylcholine-elicited response; other: compound at 0.1 mM; Agonist: percentage of maximal acetylcholine-elicited response; other: compound at 0.2 mM; other: compound at 0.4 mM; other: compound at 0.8 mM; Agonist: percentage of maxim
T1 sequence (Q21005 whole entry, looked up): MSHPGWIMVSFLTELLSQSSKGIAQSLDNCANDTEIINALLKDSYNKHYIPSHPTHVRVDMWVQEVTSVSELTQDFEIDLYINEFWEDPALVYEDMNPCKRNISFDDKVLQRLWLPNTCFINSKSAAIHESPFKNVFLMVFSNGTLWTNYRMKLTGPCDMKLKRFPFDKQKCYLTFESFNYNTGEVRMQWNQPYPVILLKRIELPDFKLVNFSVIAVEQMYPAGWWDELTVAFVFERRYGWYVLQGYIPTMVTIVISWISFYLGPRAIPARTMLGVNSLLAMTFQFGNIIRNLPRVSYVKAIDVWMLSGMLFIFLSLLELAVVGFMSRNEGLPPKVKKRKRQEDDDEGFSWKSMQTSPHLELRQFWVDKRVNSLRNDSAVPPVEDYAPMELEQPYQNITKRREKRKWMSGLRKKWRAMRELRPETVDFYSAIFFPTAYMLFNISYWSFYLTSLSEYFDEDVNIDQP
Text: as §1, §2, §3, §4, §5, §6

ACC-1G6.4 channel [3] = system: T2, ACC-1G6.4 channel; assay: as above; type: cell-based, C. elegans; details: one range given for both channels
T2 construct: rows headed: evoked current as % of the maximal ACh-elicited current; other: text; maximal magnitude of ACh-elicited inward current; other: −80 mV
Text: as §1, §2, §3, §4, §5, §6

[4] = system: Aplysia receptors mediating the slow desensitizing chloride-dependent response; details: cited from earlier work; for EC50: read-out: EC50 (range)
rat α9nAChRs = rat α9nAChRs (Rattus norvegicus, UniProt P43144); details: cited from earlier work
Sequence of rat α9nAChRs (P43144 26-479): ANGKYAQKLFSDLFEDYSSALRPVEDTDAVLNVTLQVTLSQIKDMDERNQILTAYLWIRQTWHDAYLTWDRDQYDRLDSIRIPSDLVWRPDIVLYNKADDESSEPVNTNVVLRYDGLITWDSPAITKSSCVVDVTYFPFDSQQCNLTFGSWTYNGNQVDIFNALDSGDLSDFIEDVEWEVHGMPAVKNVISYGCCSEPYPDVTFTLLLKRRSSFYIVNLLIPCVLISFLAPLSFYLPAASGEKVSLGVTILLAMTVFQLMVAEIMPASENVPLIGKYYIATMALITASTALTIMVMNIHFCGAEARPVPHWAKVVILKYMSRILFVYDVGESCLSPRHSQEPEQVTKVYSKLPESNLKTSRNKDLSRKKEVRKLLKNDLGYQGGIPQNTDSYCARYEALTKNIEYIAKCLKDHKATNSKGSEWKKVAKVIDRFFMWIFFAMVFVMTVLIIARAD

ACC-2D6.3 channel [5] = assay: cell-based
Text: as §1, §2, §3, §4, §5, §6

[6] = EC50 (agonist), oocytes clamped at −80 mV, wild type
[7] = concentration tested in brackets where printed
[8] = read-out: Agonist: percentage of maximal acetylcholine-elicited response

CC(=O)OCC[N+](C)(C)C [ACh, acetylcholine]
response (in words) (ACC-2D6.3+ACC-4E9.9): did not respond | current response (ACC-2D6.3+ACC-3D10.5): 50-60 nA | response (in words) (ACC-4E9.9): no response | current response (ACC-3D10.5): 10-30 nA | estimated Hill coefficient (agonist) (ACC-2D6.3 channel [1]): 2.64±0.08 | EC50 (ACC-2D6.3 channel [1]; [6]): 9.54 ± 0.11 µM | EC50 (ACC-2D6.3 channel [1]; EC50, Table 4): 9.5 µM | EC50 (ACC-2 F160Y): 44 ± 1.8 µM | EC50 (ACC-2 Y100L): 351 ± 33 µM

NCCCC(=O)O [GABA]
response (in words) (ACC-2D6.3+ACC-4E9.9): Neither did ACC-2D6.3+ACC-3D10.5 nor ACC-2D6.3+ACC-4E9.9 expressing oocytes respond | response (in words) (ACC-2D6.3+ACC-3D10.5): Neither did ACC-2D6.3+ACC-3D10.5 nor ACC-2D6.3+ACC-4E9.9 expressing oocytes respond | response (in words) (ACC-4E9.9): did not respond | response (in words) (ACC-3D10.5): did not respond | response (in words) (ACC-2D6.3 channel [1]; 1 mM): did not respond | response (in words) (ACC-1G6.4 channel [2]): did not respond

COC(=O)C1=CCCN(C)C1 [arecoline]
evoked current as % of the maximal ACh-elicited current (ACC-2D6.3 channel [1]): 82-89% | EC50 (ACC-2D6.3 channel [1]; [6]): 754 ± 22 µM | estimated Hill coefficient (agonist) (ACC-2D6.3 channel [1]; agonist dose-response): 2.66±0.23 | antagonist action (in words) (ACC-2D6.3 channel [1]; [7]): did not inhibit the ACh response | estimated Hill coefficient (agonist) (ACC-1G6.4 channel [2]; agonist dose-response): 1.59±0.09 | agonist action (in words) (ACC-1G6.4 channel [2]; [7]): agonists; also recorded: strong agonist; also recorded: strongly | antagonist action (in words) (ACC-1G6.4 channel [2]; [7]): did not inhibit the ACh response | EC50 (ACC-1G6.4 channel [2]; oocytes clamped at −80 mV, read-out: EC50 (agonist)): 4.7 ± 0.11 µM | evoked current as % of the maximal ACh-elicited current (ACC-1G6.4 channel [3]): 82-89%

O=c1cccc2n1C[C@@H]1CNC[C@H]2C1 [cytisine]
agonist action (in words) [4]: Weak partial agonist | estimated relative effectiveness versus acetylcholine [4]: ~0.14 | EC50 [4]: ~100 µM | IC50 (rat α9nAChRs): 43.1 µM | agonist action (in words) (rat α9nAChRs): no agonistic activity | antagonist action (in words) (rat α9nAChRs): Antagonist | concentrations at which channels responded (ACC-2D6.3 channel [5]): 800 to 1000 µM | Agonist: percentage of maximal acetylcholine-elicited response (ACC-2D6.3 channel [1]): 15.5 ± 2.9% | EC50 (ACC-2D6.3 channel [1]): ~1000 µM | IC50 (ACC-2D6.3 channel [1]): ~100 µM | Antagonist: percentage decrease in a response to acetylcholine (ACC-1G6.4 channel [2]): 66.8 ± 3% and 95 ± 1.4% | IC50 (ACC-1G6.4 channel [2]): ~10 µM | agonist action (in words) (ACC-1G6.4 channel [2]): weak agonists and/or antagonists; also recorded: no agonistic activity | antagonist action (in words) (ACC-1G6.4 channel [2]): only as an antagonist | activation at 800 µM (ACC-1G6.4 channel [2]; [8]): 0%

N[C@@H](CCC(=O)O)C(=O)O [glutamate]
response (in words) (ACC-2D6.3+ACC-4E9.9): Neither did ACC-2D6.3+ACC-3D10.5 nor ACC-2D6.3+ACC-4E9.9 expressing oocytes respond | response (in words) (ACC-2D6.3+ACC-3D10.5): Neither did ACC-2D6.3+ACC-3D10.5 nor ACC-2D6.3+ACC-4E9.9 expressing oocytes respond | response (in words) (ACC-4E9.9): did not respond | response (in words) (ACC-3D10.5): did not respond | response (in words) (ACC-2D6.3 channel [1]; 1 mM): did not respond | response (in words) (ACC-1G6.4 channel [2]): did not respond

CN1CCCC1c1cccnc1 (stereo not drawn) [nicotine]
EC50 ([4]; Table 4, order of magnitude): ~100 µM | agonist action (in words) [4]: Weak partial agonist | agonist action (in words) (rat α9nAChRs): no agonistic activity | antagonist action (in words) (rat α9nAChRs): Antagonist | concentrations at which channels responded (ACC-2D6.3 channel [5]): 800 to 1000 µM | EC50 (ACC-2D6.3 channel [1]): ~1000 µM | antagonist action (in words) (ACC-2D6.3 channel [1]): no antagonistic | EC50 (ACC-1G6.4 channel [2]): ~1000 µM | IC50 (ACC-1G6.4 channel [2]): ~100 µM | agonist action (in words) (ACC-1G6.4 channel [2]): weak agonists and/or antagonists; also recorded: very weak agonist; also recorded: poorly; also recorded: Weak partial agonist | antagonist action (in words) (ACC-1G6.4 channel [2]): partial antagonist | activation at 100 µM (ACC-1G6.4 channel [2]; [8]): 5.2 ± 1.2% | activation at 1000 µM (ACC-1G6.4 channel [2]; [8]): 12 ± 2.7%

NCCc1c[nH]c2ccc(O)cc12 [serotonin]
response (in words) (ACC-2D6.3+ACC-4E9.9): Neither did ACC-2D6.3+ACC-3D10.5 nor ACC-2D6.3+ACC-4E9.9 expressing oocytes respond | response (in words) (ACC-2D6.3+ACC-3D10.5): Neither did ACC-2D6.3+ACC-3D10.5 nor ACC-2D6.3+ACC-4E9.9 expressing oocytes respond | response (in words) (ACC-4E9.9): not observed | response (in words) (ACC-3D10.5): not observed | current response (ACC-2D6.3 channel [1]; 1 mM): 10-30 nA | Agonist: percentage of maximal acetylcholine-elicited response (ACC-2D6.3 channel [1]; compound at 1 mM): 3.7 ± 0.4% | response (in words) (ACC-1G6.4 channel [2]): not observed | activation at 1000 µM (ACC-1G6.4 channel [2]; [8]): 0%
